From ChEMBL document CHEMBL3885861, “Open TG-GATES”

Organism: Rattus norvegicus
Assay: Open TG-GATES - Regimen: Single
Format: toxicity, organism-based, Sprague-Dawley
Parameters: regimen Single, gender Male, age 6 weeks
Settings: in vivo, po, 2000 mg/kg, route gavage, dose level High; for APTT / Bas / Eos / Fbg / Hb / Ht / Lym / MCH / MCHC / MCV / Mono / Neu / PT / Plat / RBC / Ret / WBC: tissue Blood; for KIDNEY_L / KIDNEY_R / KIDNEY_TOTAL: tissue Kidney; for LIVER: tissue Liver; for A/G / ALP / ALT / AST / BUN / CRE / Ca / Cl / DBIL / GLC / IP / K / LDH / Na / PL / RALB / TBIL / TC / TG / TP / gamma-GTP: tissue Plasma

CCN1CCCC1CNC(=O)c1cc(S(N)(=O)=O)ccc1OC (configuration not stated) [SULPIRIDE]
TERMINAL_BW (3 h): 201.8 g | APTT (3 h): 18.6 s | Bas (3 h): 0% | Eos (3 h): 0.6% | Fbg (3 h): 244.2 mg/dL | Hb (3 h): 12.7 g/dL | Ht (3 h): 39.6% | Lym (3 h): 82% | MCH (3 h): 21 pg | MCHC (3 h): 32.2% | MCV (3 h): 65.4 fL | Mono (3 h): 3.2% | Neu (3 h): 13% | PT (3 h): 13.9 s | Plat (3 h): 117.9 x10_4/uL | RBC (3 h): 606.4 x10_4/ul | Ret (3 h): 7.7% | WBC (3 h): 82.3 x10_2/uL | KIDNEY_L (3 h): 0.9 g | KIDNEY_R (3 h): 0.9 g | KIDNEY_TOTAL (3 h): 1.8 g | LIVER (3 h): 9 g | A/G (3 h): 0.9 | ALP (3 h): 1446.6 IU/L | ALT (3 h): 42 IU/L | AST (3 h): 74.6 IU/L | BUN (3 h): 9.4 mg/dL | CRE (3 h): 0.2 mg/dL | Ca (3 h): 10.6 mg/dL | Cl (3 h): 105.4 meq/L | DBIL (3 h): 0.004 mg/dL | GLC (3 h): 174 mg/dL | IP (3 h): 8.8 mg/dL | K (3 h): 3.9 meq/L | LDH (3 h): 90.2 IU/L | Na (3 h): 143.4 meq/L | PL (3 h): 119.6 mg/dL | RALB (3 h): 2.3 g/dL | TBIL (3 h): 0.068 mg/dL | TC (3 h): 57.6 mg/dL | TG (3 h): 55 mg/dL | TP (3 h): 4.9 g/dL | gamma-GTP (3 h): 1.2 IU/L | TERMINAL_BW (6 h): 199.5 g | APTT (6 h): 17 s | Bas (6 h): 0% | Eos (6 h): 0.8% | Fbg (6 h): 273 mg/dL | Hb (6 h): 13 g/dL | Ht (6 h): 40.9% | Lym (6 h): 76.6% | MCH (6 h): 20.9 pg | MCHC (6 h): 31.9% | MCV (6 h): 65.6 fL | Mono (6 h): 2.6% | Neu (6 h): 19% | PT (6 h): 13.4 s | Plat (6 h): 121.6 x10_4/uL | RBC (6 h): 623.8 x10_4/ul | Ret (6 h): 7.6% | WBC (6 h): 63.1 x10_2/uL | KIDNEY_L (6 h): 0.9 g | KIDNEY_R (6 h): 0.9 g | KIDNEY_TOTAL (6 h): 1.7 g | LIVER (6 h): 8.1 g | A/G (6 h): 0.9 | ALP (6 h): 1306.2 IU/L | ALT (6 h): 39.6 IU/L | AST (6 h): 74.2 IU/L | BUN (6 h): 7.2 mg/dL | CRE (6 h): 0.1 mg/dL | Ca (6 h): 10.5 mg/dL | Cl (6 h): 106.4 meq/L | DBIL (6 h): 0 mg/dL | GLC (6 h): 163.6 mg/dL | IP (6 h): 9.1 mg/dL | K (6 h): 4 meq/L | LDH (6 h): 92 IU/L | Na (6 h): 142.4 meq/L | PL (6 h): 133.2 mg/dL | RALB (6 h): 2.4 g/dL | TBIL (6 h): 0.07 mg/dL | TC (6 h): 72.2 mg/dL | TG (6 h): 35.2 mg/dL | TP (6 h): 5.2 g/dL | gamma-GTP (6 h): 1 IU/L | TERMINAL_BW (9 h): 199.2 g | APTT (9 h): 19.7 s | Bas (9 h): 0% | Eos (9 h): 1% | Fbg (9 h): 296.6 mg/dL | Hb (9 h): 13.3 g/dL | Ht (9 h): 41.7% | Lym (9 h): 79.6% | MCH (9 h): 20.1 pg | MCHC (9 h): 32% | MCV (9 h): 62.9 fL | Mono (9 h): 2.2% | Neu (9 h): 16.6% | PT (9 h): 13.2 s | Plat (9 h): 117.3 x10_4/uL | RBC (9 h): 663.8 x10_4/ul | Ret (9 h): 7.5% | WBC (9 h): 63.8 x10_2/uL | KIDNEY_L (9 h): 0.9 g | KIDNEY_R (9 h): 0.9 g | KIDNEY_TOTAL (9 h): 1.8 g | LIVER (9 h): 7.5 g | A/G (9 h): 0.9 | ALP (9 h): 1349.6 IU/L | ALT (9 h): 30.8 IU/L | AST (9 h): 67.4 IU/L | BUN (9 h): 7.4 mg/dL | CRE (9 h): 0.1 mg/dL | Ca (9 h): 10.5 mg/dL | Cl (9 h): 108.4 meq/L | DBIL (9 h): 0.008 mg/dL | GLC (9 h): 165.6 mg/dL | IP (9 h): 10.1 mg/dL | K (9 h): 4.3 meq/L | LDH (9 h): 88.2 IU/L | Na (9 h): 142 meq/L | PL (9 h): 133.8 mg/dL | RALB (9 h): 2.5 g/dL | TBIL (9 h): 0.076 mg/dL | TC (9 h): 73 mg/dL | TG (9 h): 29 mg/dL | TP (9 h): 5.3 g/dL | gamma-GTP (9 h): 1.6 IU/L | TERMINAL_BW (24 h): 209.1 g | APTT (24 h): 16.6 s | Bas (24 h): 0.2% | Eos (24 h): 0.8% | Fbg (24 h): 301.4 mg/dL | Hb (24 h): 13.8 g/dL | Ht (24 h): 42.8% | Lym (24 h): 79.2% | MCH (24 h): 20.4 pg | MCHC (24 h): 32.3% | MCV (24 h): 63.2 fL | Mono (24 h): 3.6% | Neu (24 h): 15.4% | PT (24 h): 12.7 s | Plat (24 h): 120.6 x10_4/uL | RBC (24 h): 678.6 x10_4/ul | Ret (24 h): 7% | WBC (24 h): 97.3 x10_2/uL | KIDNEY_L (24 h): 0.9 g | KIDNEY_R (24 h): 0.9 g | KIDNEY_TOTAL (24 h): 1.9 g | LIVER (24 h): 9 g | A/G (24 h): 0.9 | ALP (24 h): 1595.2 IU/L | ALT (24 h): 40.6 IU/L | AST (24 h): 64.8 IU/L | BUN (24 h): 17.4 mg/dL | CRE (24 h): 0.2 mg/dL | Ca (24 h): 11.3 mg/dL | Cl (24 h): 103.8 meq/L | DBIL (24 h): 0.012 mg/dL | GLC (24 h): 179.8 mg/dL | IP (24 h): 9.3 mg/dL | K (24 h): 4.8 meq/L | LDH (24 h): 101 IU/L | Na (24 h): 141.4 meq/L | PL (24 h): 149.8 mg/dL | RALB (24 h): 2.7 g/dL | TBIL (24 h): 0.064 mg/dL | TC (24 h): 86.2 mg/dL | TG (24 h): 77 mg/dL | TP (24 h): 5.7 g/dL | gamma-GTP (24 h): 1 IU/L
